CC(C)(c1ccc(O)cc1)c1ccc(O)cc1
solubility (mole fraction)
Settings	273.15 K	278.15 K	283.15 K	288.15 K	293.15 K	298.15 K	303.15 K	308.15 K	313.15 K
in ethanol	0.209	0.214	0.22	0.226	0.232	0.238	0.245	0.252	0.26
in ethyl acetate	0.234	0.238	0.241	0.243	0.247	0.252	0.256	0.261	0.266
in n-butanol	0.0745	0.0832	0.094	0.106	0.119	0.135	0.147	0.166	0.183
in sec-butanol	0.0343	0.0391	0.0465	0.0564	0.0649	0.0725	0.0846	0.094	0.105
